Patent publication US8658604B2, “Template-fixed beta-hairpin peptidomimetics with protease inhibitory activity” (Polyphor Ltd, priority 2005, dated 2014)
Where a SMILES comes first, the peptide text is derived from it.

Columns and labels:
[1] = target: T1, CathepsinG, from human neutrophils (Homo sapiens, UniProt P08311); test: Enzymatic assay, cathepsin G; settings: for IC50: Cathepsin G IC50
T1 sequence (P08311 21-244): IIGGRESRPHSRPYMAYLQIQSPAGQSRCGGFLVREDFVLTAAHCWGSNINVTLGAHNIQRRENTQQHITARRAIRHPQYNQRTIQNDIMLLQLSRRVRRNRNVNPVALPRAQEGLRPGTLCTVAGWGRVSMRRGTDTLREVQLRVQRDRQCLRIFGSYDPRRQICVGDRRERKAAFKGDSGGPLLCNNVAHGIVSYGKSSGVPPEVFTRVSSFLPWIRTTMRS

[2] = system: Tryptase, from human lung; test: Enzymatic assay, tryptase; settings: at 100 μM
[3] = target: Coagulation Factor Xa, from uman plasma (Homo sapiens, UniProt P00742); test: Enzymatic assay, coagulation factor Xa
Sequence of Coagulation Factor Xa, from uman plasma (P00742 235-488 limits assumed): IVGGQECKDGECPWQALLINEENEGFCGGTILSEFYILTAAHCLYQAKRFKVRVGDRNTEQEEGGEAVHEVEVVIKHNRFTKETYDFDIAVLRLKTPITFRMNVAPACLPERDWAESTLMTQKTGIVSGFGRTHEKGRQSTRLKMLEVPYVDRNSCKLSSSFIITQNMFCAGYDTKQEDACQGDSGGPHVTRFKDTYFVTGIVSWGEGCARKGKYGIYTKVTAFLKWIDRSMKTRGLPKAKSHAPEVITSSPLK
Sequence of Coagulation Factor Xa, from uman plasma (P00742 41-179 limits assumed): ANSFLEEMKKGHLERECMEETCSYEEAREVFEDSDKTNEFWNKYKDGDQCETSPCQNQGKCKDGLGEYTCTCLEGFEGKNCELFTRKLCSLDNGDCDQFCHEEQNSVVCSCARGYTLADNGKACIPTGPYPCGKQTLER

[4] = target: Trypsin, from human pancreas (Homo sapiens, UniProt P07477); test: Enzymatic assay, trypsin; settings: at 100 μM
[5] = type: in vitro ADME; settings: 10 µM
Description: 405 μl of plasma/albumin solution were placed in a polypropylene (PP) tube and spiked with 45 μl of compound from a […] solution B, derived from 135 μl of PBS and 15 μl of 1 mM peptide in PBS, pH 7.4. 150 μl aliquots were transferred into individual wells of the 10 kDa filter plate (Millipore MAPPB 1010 Biomax membrane). For “0 minutes controls”: 270 μl of PBS were placed in a PP tube and 30 μl of stock solution B was added and vortexed. 150 μl of control solution were placed into one well of the filter plate and served as “filtered control”.
Further 150 μl of control solution were placed directly into a receiver well (reserved for filtrate) and served as “not-filtered control”. The entire plate including evaporation lid was incubated for 60 min at 37° C. Plasma samples (rat plasma: Harlan Sera lab UK, human plasma: Blutspendezentrum Zürich) were centrifuged at least for 2 h at 4300 rpm (3500 g) and 15° C. in order to yield 100 filtrate. For “serum albumin”-samples (freshly prepared human albumin: Sigma A-4327, rat albumin: Sigma A-6272, all at 40 mg/ml concentration in PBS) approximately 1 hour of centrifugation was sufficient. The filtrates in the receiver PP plate were analysed by LC/MS as follower follows: Column: Jupiter C18 (Phenomenex), mobile phases: (A) 0.1% formic acid in water and (B) acetonitrile, gradient: 5%-100% (B) in 2 minutes, electrospray ionization, MRM detection (triple quadrupole). The peak areas were determined and triplicate values were averaged. The binding was expressed in percent of the (filtered and not-filtered time point 0 min) control 1 and 2 by: 100−(100×T60/T0). The average from these values was then calculated.

Chymase, from human skin = target: T2, Chymase, from human skin (Homo sapiens, UniProt P23946); test: Enzymatic assay, chymase
T2 sequence (P23946 22-247): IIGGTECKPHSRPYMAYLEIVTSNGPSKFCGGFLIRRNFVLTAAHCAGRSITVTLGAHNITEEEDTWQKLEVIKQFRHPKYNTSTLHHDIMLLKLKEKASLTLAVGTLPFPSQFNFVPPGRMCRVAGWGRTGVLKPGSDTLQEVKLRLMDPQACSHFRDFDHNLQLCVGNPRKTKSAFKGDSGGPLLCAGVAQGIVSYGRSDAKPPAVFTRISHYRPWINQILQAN

[6] = target: T3, Elastase from human neutrophils (Homo sapiens, UniProt P08246); test: Enzymatic assay, elastase; settings: Elastase IC50
T3 sequence (P08246 30-267): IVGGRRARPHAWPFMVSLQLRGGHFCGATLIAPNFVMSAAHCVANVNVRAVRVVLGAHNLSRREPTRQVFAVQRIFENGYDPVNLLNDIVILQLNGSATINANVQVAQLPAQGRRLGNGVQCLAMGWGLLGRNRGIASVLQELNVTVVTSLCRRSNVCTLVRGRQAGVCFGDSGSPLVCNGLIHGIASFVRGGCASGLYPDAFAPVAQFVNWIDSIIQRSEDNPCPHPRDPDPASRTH

[7] = target: Urokinase from human urine (Homo sapiens, UniProt P00749); test: Enzymatic assay, urokinase
[8] = target: Chymotrypsin, from human pancreas (Homo sapiens, UniProt P17538); test: Enzymatic assay, chymotrypsin
Sequence of Chymotrypsin, from human pancreas (P17538 19-263): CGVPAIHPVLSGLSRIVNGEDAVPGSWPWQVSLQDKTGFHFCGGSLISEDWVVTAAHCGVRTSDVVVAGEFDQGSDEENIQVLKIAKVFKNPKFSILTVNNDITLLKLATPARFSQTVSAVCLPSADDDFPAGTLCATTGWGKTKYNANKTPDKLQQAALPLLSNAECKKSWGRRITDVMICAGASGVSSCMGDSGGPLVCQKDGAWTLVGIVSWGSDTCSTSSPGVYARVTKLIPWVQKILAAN

[9] = target: Thrombin, from Human Plasma (Homo sapiens, UniProt P00734); test: Enzymatic assay, thrombin
HELA cells (Acc57) = test: Cytotoxicity assay (MTT reduction), HELA cells; type: cell-based; settings: Hela cells
Summary of the method: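 HeLa cells were grown for 24 h, then exposed to peptides at 12.5, 25 and 50 μM in triplicate for 48 h at 37 °C. MTT reduction was read at 595 nm and growth % calculated relative to time-zero wells. LC50 interpolated by linear trend at −50% growth, GI50 at 50%.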

[10] = system: human red blood cells (hRBC); test: Hemolysis
Description: The peptides were tested for their hemolytic activity against human red blood cells (hRBC). Fresh hRBC were washed three times with phosphate buffered saline (PBS) by centrifugation for 10 min at 2000×g. Peptides at a concentration of 100 μM were incubated with 20% v/v hRBC for 1 hour at 37° C. The final erythrocyte concentration was approximately 0.9×10^9 cells per ml. A value of 0% and, respectively, 100% cell lysis was determined by incubation of the hRBC in the presence of PBS alone and, respectively, 0.1% Triton X-100 in H2O. […] The 100% lysis value (OD540H20) gave an OD540 of approximately 1.3-1.8. Percent hemolysis was calculated as follows: (OD540peptide/OD540H20)×100%.

SMILES: C[C@@H]1NC(=O)[C@H]([C@@H](C)O)NC(=O)[C@@H]2CSSC[C@H](NC(=O)[C@H](CCC(N)=O)NC(=O)[C@@H]3CCCN3C(=O)[C@@H]3CCCN3C(=O)[C@H](CC3CCCCC3)NC(=O)[C@H](CO)NC1=O)C(=O)N[C@@H](CCC(N)=O)C(=O)N1CCC[C@@H]1C(=O)N1CCC[C@H]1C(=O)N[C@@H](CCc1ccccc1)C(=O)N2 [Ex. 158] (HELM PEPTIDE1{[O=C([C@H](CCc1ccccc1)N[*:1])[*:2]].C.T.A.S.[Cha].P.P.Q.C.Q.[dP].P}$PEPTIDE1,PEPTIDE1,2:R3-10:R3|PEPTIDE1,PEPTIDE1,1:R1-13:R2$$$V2.0)
- Cathepsin G at 100 μM % ([1]; at 100 μM): 55 at 100%
- Tryptase At 100 μM % [2]: 13%
- FXa at 100 μM % [3]: 1%
- Trypsin at 100 μM % [4]: 8%
- Stability human Plasma t1/2 [5]: 5 h
- Stability rat Plasma t1/2 [5]: 5 h
- Chymase at 100 μM % (Chymase, from human skin): 0%
- IC50 [6]: 0.0071 µM
- Urokinase at 100 μM % [7]: 10%
- Chymotrypsin at 100 μM % [8]: 93%
- Thrombin at 100 μM % [9]: 2%

SMILES: CCCC[C@@H]1NC(=O)[C@H]([C@@H](C)O)NC(=O)[C@@H]2CSSC[C@H](NC(=O)[C@H]([C@@H](C)CC)NC(=O)[C@@H]3CCCN3C(=O)[C@@H]3CCCN3C(=O)[C@H](CC(=O)O)NC(=O)[C@H](CO)NC1=O)C(=O)N[C@@H](Cc1ccc(O)cc1)C(=O)N1CCC[C@@H]1C(=O)N1CCC[C@H]1C(=O)N[C@@H](Cc1ccccc1)C(=O)N2 [Ex. 23] (HELM PEPTIDE1{F.C.T.[Nle].S.D.P.P.I.C.Y.[dP].P}$PEPTIDE1,PEPTIDE1,2:R3-10:R3|PEPTIDE1,PEPTIDE1,1:R1-13:R2$$$V2.0)
- IC50 [1]: 0.038 µM
- Tryptase at 100 μM % [2]: 29%
- FXa at 100 μM % [3]: 11%
- Trypsin at 100 μM % [4]: 90%
- Cytotoxicity LC50/GI50 Hela cells (HELA cells (Acc57)): 51 µM
- Stability human Plasma t1/2 [5]: 5 h
- Stability rat Plasma t1/2 [5]: 5 h
- Chymase at 100 μM % (Chymase, from human skin): 60%
- IC50 [6]: > 100 µM
- Hemolysis at 100 μM % [10]: 0%
- Urokinase at 100 μM % [7]: 9%
- Chymotrypsin at 100 μM % [8]: 4%
- Thrombin at 100 μM % [9]: 0%

SMILES: CCCC[C@@H]1NC(=O)[C@H](CC(=O)O)NC(=O)[C@H]2CCCN2C(=O)[C@H](Cc2ccc(O)cc2)NC(=O)[C@@H]2CSSC[C@H](NC1=O)C(=O)N[C@@H]([C@@H](C)O)C(=O)N[C@@H](C)C(=O)N[C@@H](CO)C(=O)N[C@@H]([C@@H](C)CC)C(=O)N1CCC[C@H]1C(=O)N1CCC[C@H]1C(=O)N[C@@H](CCC(N)=O)C(=O)N2 [Ex. 121] (HELM PEPTIDE1{[Nle].C.T.A.S.I.P.P.Q.C.Y.[dP].D}$PEPTIDE1,PEPTIDE1,2:R3-10:R3|PEPTIDE1,PEPTIDE1,1:R1-13:R2$$$V2.0)
- IC50 [1]: 11.2 µM
- Tryptase at 100 μM % [2]: 4.6%
- FXa at 100 μM % [3]: 5.6%
- Trypsin at 100 μM % [4]: 12.8%
- Cytotoxicity LC50/GI50 Hela cells (HELA cells (Acc57)): 49 µM
- Stability human Plasma t1/2 [5]: 5 h
- Stability rat Plasma t1/2 [5]: 5 h
- Chymase at 100 μM % (Chymase, from human skin): 1.2%
- IC50 [6]: 0.018 µM
- Urokinase at 100 μM % [7]: 5.7%
- IC50 [8]: 27.5 µM
- Thrombin at 100 μM % [9]: 0%

SMILES: CC[C@H](C)[C@@H]1NC(=O)[C@@H]2CCCN2C(=O)[C@@H]2CCCN2C(=O)[C@H](CC(=O)O)NC(=O)[C@H](CO)NC(=O)[C@H](CCCCN)NC(=O)[C@H]([C@@H](C)O)NC(=O)[C@@H]2CSSC[C@H](NC1=O)C(=O)N[C@@H](CO)C(=O)N1CCC[C@@H]1C(=O)N[C@@H](CC(=O)O)C(=O)N[C@@H](Cc1ccccc1)C(=O)N2 [Ex. 47] (HELM PEPTIDE1{F.C.T.K.S.D.P.P.I.C.S.[dP].D}$PEPTIDE1,PEPTIDE1,2:R3-10:R3|PEPTIDE1,PEPTIDE1,1:R1-13:R2$$$V2.0)
- IC50 [1]: 0.064 µM
- Tryptase at 100 μM % [2]: 0%
- FXa at 100 μM % [3]: 9.3%
- Trypsin at 100 μM % [4]: 87%
- Cytotoxicity LC50/GI50 Hela cells (HELA cells (Acc57)): 100 µM
- Chymase at 100 μM % (Chymase, from human skin): 8.2%
- IC50 [6]: > 10 µM
- Hemolysis at 100 μM % [10]: 0%
- Urokinase at 100 μM % [7]: 6.3%
- Chymotrypsin at 100 μM % [8]: 1%
- Thrombin at 100 μM % [9]: 0%

SMILES: CC[C@H](C)[C@@H]1NC(=O)[C@@H]2CCCN2C(=O)[C@@H]2CCCN2C(=O)[C@H](CC(=O)O)NC(=O)[C@H](CO)NC(=O)[C@H](CCCCN)NC(=O)[C@H]([C@@H](C)O)NC(=O)[C@@H]2CSSC[C@H](NC1=O)C(=O)N[C@@H](CO)C(=O)N1CCC[C@@H]1C(=O)N1CCC[C@H]1C(=O)N[C@@H](Cc1ccccc1)C(=O)N2 [Ex. 4] (HELM PEPTIDE1{F.C.T.K.S.D.P.P.I.C.S.[dP].P}$PEPTIDE1,PEPTIDE1,2:R3-10:R3|PEPTIDE1,PEPTIDE1,1:R1-13:R2$$$V2.0)
- IC50 [1]: 0.091 µM
- Tryptase at 100 μM % [2]: 0%
- FXa at 100 μM % [3]: 2.4%
- Trypsin at 100 μM % [4]: 96%
- Cytotoxicity LC50/GI50 Hela cells (HELA cells (Acc57)): 100 µM
- Chymase at 100 μM % (Chymase, from human skin): 0%
- IC50 [6]: > 100 µM
- Hemolysis at 100 μM % [10]: 0%
- Urokinase at 100 μM % [7]: 5.4%
- Chymotrypsin at 100 μM % [8]: 1.8%
- Thrombin at 100 μM % [9]: 0%
